# Laboratory results from patent US6670144B1 (priority 1999, dated 2003).
# Where no end group is shown, it is not given here.
# T1: PKA Peptide 2, labelled with biotin and bound to streptavidin, non-phosphorylated (biotin label (bound to streptavidin in the assay))
# T1 construct: Coiled-coil forming peptide with a PKA phosphorylation site
# T1 peptide: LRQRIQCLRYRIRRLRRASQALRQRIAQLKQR
# B1: PKA Peptide 1, labelled with coumarin, non-phosphorylated (peptide)
# peptide: EREIKALEREIRRLRRASQALEREIAQLERE
# modifications: also: coumarin label, position not given here
# notes: Coiled-coil forming peptide with a PKA phosphorylation site; also called coumarin labelled peptide 1
# How the values were obtained:
# Chk1 protein kinase [1] = molecular target: T2, Chk1 protein kinase (Homo sapiens, UniProt O14757); conditions: EDTA 10 mM or 20 mM added prior to enzyme addition; FIG. 8
# T2 sequence (O14757 whole entry): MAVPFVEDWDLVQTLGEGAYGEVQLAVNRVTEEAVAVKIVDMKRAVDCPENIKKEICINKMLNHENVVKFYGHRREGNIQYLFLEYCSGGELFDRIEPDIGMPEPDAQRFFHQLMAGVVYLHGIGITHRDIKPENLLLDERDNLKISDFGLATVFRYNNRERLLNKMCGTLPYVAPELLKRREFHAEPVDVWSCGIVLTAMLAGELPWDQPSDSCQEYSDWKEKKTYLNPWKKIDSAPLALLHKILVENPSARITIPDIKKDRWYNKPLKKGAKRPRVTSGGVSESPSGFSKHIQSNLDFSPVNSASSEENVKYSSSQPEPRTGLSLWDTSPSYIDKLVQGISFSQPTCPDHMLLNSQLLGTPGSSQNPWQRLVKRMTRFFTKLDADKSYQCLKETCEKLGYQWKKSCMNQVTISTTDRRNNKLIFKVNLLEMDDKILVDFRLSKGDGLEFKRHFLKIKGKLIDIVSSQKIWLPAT
# Chk1 protein kinase [2] = molecular target: T2, Chk1 protein kinase; conditions: EDTA 1 mM, 5 mM or 20 mM added before 21 mU Chk1; FIG. 11
# Src kinase = Src kinase (Homo sapiens, UniProt P12931); experiment: FRET assay of Src phosphorylation of rhodamine labelled SHPS-1 peptide, read by binding to SHP2-GFP; assay type: biochemical; conditions: 10 μM staurosporine added before the Src enzyme; FIG. 19
# Sequence of Src kinase (P12931 whole entry, the tested form may be a part): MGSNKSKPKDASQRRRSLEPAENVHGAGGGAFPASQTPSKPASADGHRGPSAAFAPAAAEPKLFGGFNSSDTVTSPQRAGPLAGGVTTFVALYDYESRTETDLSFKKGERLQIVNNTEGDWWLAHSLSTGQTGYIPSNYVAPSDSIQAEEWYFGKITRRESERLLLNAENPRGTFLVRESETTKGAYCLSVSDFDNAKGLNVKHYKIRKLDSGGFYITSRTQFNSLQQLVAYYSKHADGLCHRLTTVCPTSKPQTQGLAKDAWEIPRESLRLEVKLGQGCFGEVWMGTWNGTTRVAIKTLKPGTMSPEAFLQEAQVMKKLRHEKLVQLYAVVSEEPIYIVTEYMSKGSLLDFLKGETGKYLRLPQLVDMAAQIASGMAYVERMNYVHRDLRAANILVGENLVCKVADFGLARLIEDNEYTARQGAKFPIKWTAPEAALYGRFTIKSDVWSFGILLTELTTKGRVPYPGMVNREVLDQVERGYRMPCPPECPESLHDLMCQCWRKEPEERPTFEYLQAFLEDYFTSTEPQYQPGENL
# Protocol: These FRET-based assays are performed to measure Src kinase activity as determined by the Src kinase dependent formation of a complex between the SH2 domain of SHP2 labelled with a fluorophore and an synthetic peptide based on SHPS-1, also labelled with a fluorophore.
# Interaction between the tandem SH2 domain of SHP2 and a synthetic peptide based on SHPS-1 is mediated by the state of phosphorylation of the peptide. A FRET partnership can be established between phosphorylated peptide and the SH2 domain providing both moieties are labelled with suitable fluorophores which are brought into close proximity upon interaction of binding partners. […]
# SHP2-GFP was diluted to 0.5 μM in assay buffer (50 mM Tris HCL pH 7.2, 10 mM β-mercaptoethanol, 0.5 mg/ml BSA, 0.015% Brij 35). […] Initial readings of the fluorescence of the SHP2-GFP construct were made using 485 nm excitation wavelength and 520 nm emission wavelength. Rhodamine labelled peptide (2 μl of the above phosphorylation reactions) was added to the SHP2-GFP solution and formation of FRET was monitored in real-time by measuring the decrease in fluorescence emission of SHP2-GFP at 520 nm as shown in FIG. 17. […]
# [3] = molecular target: Yersinia protein tyrosine phosphatase (YOP) (Yersinia enterocolitica, UniProt P15273); assay type: biochemical; conditions: read-out: IC50 for inhibition of YOP
# Sequence of Yersinia protein tyrosine phosphatase (YOP) (P15273 whole entry): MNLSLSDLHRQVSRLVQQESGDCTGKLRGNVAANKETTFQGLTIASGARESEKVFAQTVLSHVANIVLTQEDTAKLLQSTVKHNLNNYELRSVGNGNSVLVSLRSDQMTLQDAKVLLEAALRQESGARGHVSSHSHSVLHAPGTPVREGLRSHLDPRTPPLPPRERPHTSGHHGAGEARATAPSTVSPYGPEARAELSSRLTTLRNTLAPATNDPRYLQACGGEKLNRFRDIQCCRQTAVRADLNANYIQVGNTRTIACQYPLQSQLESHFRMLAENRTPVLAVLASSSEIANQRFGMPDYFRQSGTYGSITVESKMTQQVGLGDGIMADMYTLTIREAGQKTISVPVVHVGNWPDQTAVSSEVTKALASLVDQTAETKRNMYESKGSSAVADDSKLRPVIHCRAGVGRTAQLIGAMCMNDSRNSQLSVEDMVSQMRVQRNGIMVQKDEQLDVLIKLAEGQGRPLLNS
# [4] = molecular target: T1, PKA Peptide 2, labelled with biotin and …; experiment: fluorescence polarisation of coumarin labelled peptide 1 with biotin labelled peptide 2 on streptavidin
molecule,measurement,setting,value
O=C(O)CN(CCN(CC(=O)O)CC(=O)O)CC(=O)O [EDTA],Inhibition of Chk1 phosphorylation of Chktide peptide (end point),Chk1 protein kinase [1],inhibition
same,Inhibition of Chk1 phosphorylation of fluorescein labelled Chktide (real time),Chk1 protein kinase [2],inhibition
CN[C@@H]1C[C@H]2O[C@@](C)([C@@H]1OC)n1c3ccccc3c3c4c(c5c6ccccc6n2c5c31)C(=O)NC4 [staurosporine],Inhibition of Src: formation of FRET partnership between SH2 domain of SHP2 and SHPS-1 peptide,Src kinase,failed to form a FRET partnership
"[Na+].[Na+].[Na+].[O]=[V]([O-])([O-])[O-] [vanadate, Sodium orthovanadate]",IC50,[3],250 nM
B1,binding result,[4],binds
